The text below walks through data of patent US20250289812A1, “COMPOUND FOR TREATING THROMBOTIC DISEASES” (SHANGHAI INSTITUTE OF MATERIA MEDICA, CHINESE ACADEMY OF …, priority 2020, published 2025).

For assay [1], the target named is Src kinase SH3 domain protein (Homo sapiens (Human), UniProt P12931). Kind of assay: Surface plasmon resonance (SPR) determination of dissociation constants with SH3 protein. Particulars: SH3 protein coupled to CM5 chip. The format is binding. As to the method:
1. Experimental method: Surface plasmon resonance test was carried out on BIACORE T200 instrument (GE Company). Fresh purified grade Src kinase SH3 domain protein (concentration 2 mg/ml) was diluted to 0.1 mg/ml with 10 mM CH3COONa (pH 4.2) and then SH3 protein was coupled to the CM5 chip by standard amino coupling methods. The compounds of the invention were diluted in a gradient using a buffer solution (20 mM Tris-HCl, PH 8.0, 100 mM NaCl) for 60 seconds and dissociated for 120 seconds at a flow rate of […], respectively. The changes in response values over time were recorded and analyzed by the BIA Evaluation Software (GE Healthcare) program to obtain the dissociation constants KD for the different compounds with SH3 protein.
2. Experimental results and conclusions: The dissociation constants KD of different compounds and SH3 protein were described in Table 2, and the surface plasmon resonance (SPR) experimental results of some compounds were shown in FIG. 1.
On the technique in general: In SPR one partner is held on a chip, and binding of the other changes the refractive index at the surface.

Assay [2] concerns platelets on solid phase fibrinogen. The experiment in a line: Effect of compound on platelet stretching on solid phase fibrinogen. The format is cell-based. Particulars: 1 h, washed platelets, incubated 60 min at 37° C., read-out: Concentration range for compounds that inhibit platelet stretching on fibrinogen. How it is done:
1. Experimental method: Firstly, 50 μl fibrinogen (0.1M, diluted with pH 8.3 sodium bicarbonate, 20 μg/ml) was added to 96-well plate, and coated overnight at 4° C. After being washed by PBS for 3 times in the morning, sealed with bovine serum albumin (20 mg/ml) at 37° C. for 60 min, then 100 μl of washed platelet suspension was taken, and added into compounds in each group to make the final concentration 250 μM, and incubated at 37° C. for 60 min. 50 μl of incubated platelets were added to 96-well plate, adhered in a temperature box at 37° C. for 60 min, unadhered platelets were removed by PBS washing for 3 times, and adhered platelets were stably fixed with 4% paraformaldehyde, and washed with PBS for 3 times. Then the platelet membrane was perforated with 0.5% Triton X-100, and then the platelet was stained with 0.5 μg/ml phalloidin-rhodamine for 60 min at 37° C. and washed 3 times (10 min each) with PBS.
2. Experimental results and conclusions: The concentration of different compounds on platelet stretching on fibrinogen was shown in Table 3, and the inhibitory effect of some compounds on platelet stretching was shown in FIG. 2.

Chain of Src kinase SH3 domain protein (P12931 whole entry, looked up, the tested form may be a part): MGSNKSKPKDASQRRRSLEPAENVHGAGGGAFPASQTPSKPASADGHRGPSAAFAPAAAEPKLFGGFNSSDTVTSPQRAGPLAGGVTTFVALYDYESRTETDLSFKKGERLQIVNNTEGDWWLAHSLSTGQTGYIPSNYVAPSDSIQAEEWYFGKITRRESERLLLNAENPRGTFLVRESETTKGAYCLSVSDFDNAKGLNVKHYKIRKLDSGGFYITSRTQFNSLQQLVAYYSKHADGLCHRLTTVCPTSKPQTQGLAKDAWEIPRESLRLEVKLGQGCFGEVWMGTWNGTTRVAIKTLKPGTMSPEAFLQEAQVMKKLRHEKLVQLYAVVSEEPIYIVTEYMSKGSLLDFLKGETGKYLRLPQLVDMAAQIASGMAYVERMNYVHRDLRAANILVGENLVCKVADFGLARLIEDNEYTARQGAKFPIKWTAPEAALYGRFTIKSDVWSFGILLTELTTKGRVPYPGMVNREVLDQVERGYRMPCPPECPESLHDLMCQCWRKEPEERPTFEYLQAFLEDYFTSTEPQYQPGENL

A word on the Kd: it is a measure of binding affinity in units of concentration. A higher Kd goes with a looser complex. In assay [1], `CCOC(=O)c1c(CNC(=N)N)n(C)c2cc(C3=CCOc4ccccc43)ccc12` [SYY-C086] returned a Kd of under 1 µM. Besides, the minimal effective concentration in assay [2] lay in the range of 10 to 100 µM.
Taken in the same sequence, the figures for `CCOC(=O)c1c(CSC(=N)N)n(C)c2cc(-c3cccc4ccccc34)ccc12` [SYY-C042] were 1 to 10 µM and 10 to 100 µM.
Taken in the same sequence, the figures for `CCOC(=O)c1c(CNC(=N)N)n(C)c2cc(Br)ccc12` [SYY-C015] were under 1 µM and 10 to 100 µM.
Taken in the same sequence, the figures for `CCOC(=O)c1c(CNC(=N)N)n(-c2ccccc2)c2cc(-c3cccc4ccccc34)ccc12` [SYY-C082] were under 1 µM and 10 to 100 µM.
The compound `CCOC(=O)c1c(CNC(=N)N)sc2cc(-c3cccc4ccccc34)c(C3CCCCC3)cc12` [SYY-C122] registered a Kd in assay [1] of under 1 µM. In addition, the minimal effective concentration in assay [2] was 10 to 100 µM.
Taken in the same sequence, the figures for `CCOC(=O)c1c(CNC(=N)N)n(C)c2cc(Br)c(-c3cccc4ccccc34)cc12` [SYY-C119] were under 1 µM and 10 to 100 µM.
The corresponding values for `CCOC(=O)c1c(CNC(=N)N)n(C)c2cc(-c3ccc4ccccc4c3)ccc12` [SYY-C041] are 10 to 100 µM and 100 to 250 µM.
Taken in the same sequence, the figures for `CCOC(=O)c1c(CNC(=N)N)sc2cc(-c3cccc4ccccc34)c(C3=CCCc4ccccc43)cc12` [SYY-C130] were 10 to 100 µM and 100 to 250 µM.
Turning to `CCOC(=O)c1c(CSC(=N)N)n(C)c2cc(Oc3ccccc3)ccc12` [SYY-C059], the Kd in assay [1] is under 1 µM. For the same compound, the minimal effective concentration in assay [2] was in the range of 10 to 100 µM.
The corresponding values for `CCOC(=O)c1c(CNC(=N)N)n(C)c2cc(-c3cccc4ccccc34)c(OC)cc12` [SYY-C103] are 1 to 10 µM and 100 to 250 µM.
Taken in the same sequence, the figures for `CCOC(=O)c1c(CNC(=N)N)n(C)c2cc(Cl)c(-c3cccc4ccccc34)cc12` [SYY-C118] were under 1 µM and 10 to 100 µM.
The corresponding values for `CCOC(=O)c1c(CNC(=N)N)n(C)c2cc(C3=CCCCCC3)ccc12` [SYY-C046] are 10 to 100 µM and 100 to 250 µM.
Take `CCOC(=O)c1c(CNC(=N)N)n(C)c2cc(-c3cccc4cc(Cl)ccc34)ccc12` [SYY-C093]: in assay [1], the equilibrium dissociation constant (Kd) is under 1 µM. Also, the minimal effective concentration in assay [2] lay within 10 to 100 µM.
Taken in the same sequence, the figures for `CCOC(=O)c1c(CNC(=N)N)n(C)c2ncc(O)cc12` [SYY-C009] were under 1 µM and 10 to 100 µM.
Taken in the same sequence, the figures for `CCOC(=O)c1c(CNC(=N)N)n(C)c2cc(-c3cccc4cccc(F)c34)ccc12` [SYY-C096] were under 1 µM and 10 to 100 µM.
Taken in the same sequence, the figures for `CCOC(=O)c1c(CNC(=N)N)n(C)c2ncc(OC3CCCC3)cc12` [SYY-C010] were 10 to 100 µM and 10 to 100 µM.
Turning to `CCOC(=O)c1c(CNC(=N)N)n(C)c2cc(-c3cccc4cc(F)ccc34)ccc12` [SYY-C098], in assay [1], the Kd is under 1 µM. Besides, in assay [2], the minimal effective concentration was 10 to 100 µM.
Compound `CCOC(=O)c1c(CNC(=N)N)n(C)c2cc(C3CCCCC3)ccc12` [SYY-C049] displayed a Kd in assay [1] of under 1 µM. The minimal effective concentration in assay [2] lay in the range of 10 to 100 µM.
Consider `COc1ccc2c(n1)c(C#N)c(CNC(=N)N)n2C` [SYY-C004], for which, in assay [1], the Kd lay in the range of 1 to 10 µM. The minimal effective concentration in assay [2] was 100 to 250 µM.
Take `CCOC(=O)c1c(CNC(=N)N)n(C)c2ccncc12` [SYY-C034]: the Kd in assay [1] lay in the range of 1 to 10 µM. For the same compound, the minimal effective concentration in assay [2] lay in the range of 100 to 250 µM.
Regarding `CCOC(=O)c1c(CNC(=N)N)n(C)c2cc(-c3cncc4ccccc34)ccc12` [SYY-C073], the Kd in assay [1] was under 1 µM. For the same compound, in assay [2], the minimal effective concentration fell in the range of 10 to 100 µM.
Take `CCOC(=O)c1c(CNC(=N)N)n(C)c2cc(C3=CCCc4ccccc43)ccc12` [SYY-C068]: the dissociation constant (Kd) in assay [1] was in the range of 1 to 10 µM. Besides, the minimal effective concentration in assay [2] was 100 to 250 µM.
The corresponding values for `CCOC(=O)c1c(CNC(=N)N)n(C)c2cc(-c3ccc(F)c4ccccc34)ccc12` [SYY-C076] are 1 to 10 µM and 100 to 250 µM.
Taken in the same sequence, the figures for `CCOC(=O)c1c(CNC(=N)N)n(C(C)C)c2cc(-c3cccc4ccccc34)ccc12` [SYY-C079] were under 1 µM and 10 to 100 µM.
Taken in the same sequence, the figures for `CCOC(=O)c1c(CNC(=N)N)sc2cc(-c3cccc4ccccc34)c(OC)cc12` [SYY-C125] were under 1 µM and 10 to 100 µM.
In assay [1], `CCOC(=O)c1c(CSC(=N)N)n(C)c2cc(C3CCC(F)(F)CC3)ccc12` [SYY-C056] had a Kd of 10 to 100 µM. In addition, the minimal effective concentration in assay [2] lay in the range of 100 to 250 µM.
Taken in the same sequence, the figures for `CCOC(=O)c1c(CNC(=N)N)n(C)c2cc(-c3cc(F)cc4ccccc34)ccc12` [SYY-C092] were 10 to 100 µM and 100 to 250 µM.
Taken in the same sequence, the figures for `CCOC(=O)c1c(CNC(=N)N)sc2cc(-c3cccc4ccccc34)c(C3=CCCCC3)cc12` [SYY-C124] were under 1 µM and 10 to 100 µM.
The corresponding values for `Cn1c(CNC(=N)N)c(C#N)c2ccc(-c3cccc4ccccc34)cc21` [SYY-C102] are under 1 µM and 10 to 100 µM.
As for `CCOC(=O)c1c(CNC(=N)N)n(C)c2cc(-c3ccc(C)c4ccccc34)ccc12` [SYY-C072], the Kd in assay [1] fell in the range of 1 to 10 µM. Moreover, the minimal effective concentration in assay [2] was in the range of 10 to 100 µM.
The corresponding values for `CN(C)C(=O)c1c(CNC(=N)N)n(C)c2cc(-c3cccc4ccccc34)ccc12` [SYY-C100] are 1 to 10 µM and 100 to 250 µM.
Taken in the same sequence, the figures for `CCOC(=O)c1c(CNC(=N)N)n(C)c2cc(Br)cnc12` [SYY-C014] were under 1 µM and 10 to 100 µM.
The corresponding values for `CCOC(=O)c1c(CNC(=N)N)n(C)c2cc(-c3cccc4ccccc34)c(C3=CCCC3)cc12` [SYY-C111] are 1 to 10 µM and 100 to 250 µM.
`CCOC(=O)c1c(CSC(=N)N)n(C)c2cc(-c3ccc4ccccc4c3)ccc12` [SYY-C043] showed a Kd in assay [1] of 1 to 10 µM. Besides, the minimal effective concentration in assay [2] was 100 to 250 µM.
Taken in the same sequence, the figures for `CCOC(=O)c1c(CNC(=N)N)n(C)c2cc(-c3ccccc3)ccc12` [SYY-C023] were 10 to 100 µM and 10 to 100 µM.
The corresponding values for `CCOC(=O)c1c(CNC(=N)N)n(C)c2cc(-c3cccc4cccc(Cl)c34)ccc12` [SYY-C095] are 10 to 100 µM and 10 to 100 µM.
In the case of `CCOC(=O)c1c(CNC(=N)N)n(C)c2cc(-c3cccc4ccccc34)c(Br)cc12` [SYY-C109], the Kd in assay [1] is under 1 µM. Besides, the minimal effective concentration in assay [2] was in the range of 10 to 100 µM.
Taken in the same sequence, the figures for `CCOC(=O)c1c(CNC(=N)N)n(C)c2ncc(OC)cc12` [SYY-C003] were under 1 µM and 10 to 100 µM.
Taken in the same sequence, the figures for `CCOC(=O)c1c(CNC(=N)N)n(C)c2cc(C3CCCC3)c(-c3cccc4ccccc34)cc12` [SYY-C117] were 10 to 100 µM and 100 to 250 µM.
Taken in the same sequence, the figures for `CCOC(=O)c1c(CSC(=N)N)n(C)c2ccc3ccccc3c12` [SYY-C062] were under 1 µM and 10 to 100 µM.
`CCOC(=O)c1c(CNC(=N)N)sc2cc(-c3cccc4ccccc34)c(Oc3ccncc3)cc12` [SYY-C129] registered a Kd in assay [1] of under 1 µM. For the same compound, the minimal effective concentration in assay [2] fell in the range of 10 to 100 µM.
Compound `CCOC(=O)c1c(CNC(=N)N)n(C)c2cc(-c3cccc4cccnc34)ccc12` [SYY-C075] showed a Kd in assay [1] of under 1 µM. Besides, the minimal effective concentration in assay [2] fell in the range of 10 to 100 µM.
Taken in the same sequence, the figures for `CCOC(=O)c1c(CNC(=N)N)n(C)c2ccc(-c3ccc4ccccc4c3)cc12` [SYY-C065] were 10 to 100 µM and 10 to 100 µM.
The corresponding values for `CCOC(=O)c1c(CNC(=N)N)n(C)c2cc(-c3c4c(cc5c3CCCC5)CCCC4)ccc12` [SYY-C088] are 10 to 100 µM and 100 to 250 µM.
`CCOC(=O)c1c(CNC(=N)N)n(C)c2ncccc12` [SYY-C002] had a Kd in assay [1] of 1 to 10 µM. Further, the minimal effective concentration in assay [2] lay within 100 to 250 µM.
Taken in the same sequence, the figures for `CCOC(=O)c1c(CNC(=N)N)n(-c2ccccc2)c2ccccc12` [SYY-C030] were 10 to 100 µM and 100 to 250 µM.
The corresponding values for `CCOC(=O)c1c(CNC(=N)N)n(C)c2nc(Cl)ccc12` [SYY-C020] are 1 to 10 µM and 100 to 250 µM.
The corresponding values for `CCOC(=O)c1c(CNC(=N)N)n(C)c2cc(C3CC3)c(-c3cccc4ccccc34)cc12` [SYY-C120] are under 1 µM and 10 to 100 µM.
`CCOC(=O)c1c(CSC(=N)N)n(C)c2cc(C3=CCCCC3)ccc12` [SYY-C051]: the Kd in assay [1] lay within 1 to 10 µM. The minimal effective concentration in assay [2] lay within 100 to 250 µM.
